# Columns and labels:
# PKC = PKC activation (aggregation and translocation of PKC-α, confocal microscopy); type: cell-based, human; details: near-senescent cells (passage 29); 30 μg/ml LPA
# Experimental: FIG. 16 represents PKC activation by LPA in presenescent and near-senescent human diploid fibroblasts. Subconfluent presenescent (passage 10, Pa 10) and near-senescent (passage 29, Pa 29) fibroblasts were serum-starved for 2 days and treated with 30 μg/ml LPA for the indicated times. PKC activation was indicated by aggregation and translocation of PKC proteins into the plasma membrane. PKC-α was detected under a confocal microscopy system with polyclonal anti-PKC-α antibodies and FITC-conjugated secondary antibodies.
# adenylyl cyclases (ACs) = assay: measurement of adenylyl cyclase activity in membranes of LPA-treated cells; type: cell-based, human; details: 30 μg/ml LPA
# Experimental: Subconfluent presenescent (passage 8, Pa 8) and near-senescent (passage 24, Pa 24) fibroblasts were serum-starved for 2 days and treated with 30 μg/ml LPA for the indicated times. The activities of adenylyl cyclase (A) and phosphodiesterase (B) were determined in the fresh membranes and total cell lysates as described in Materials and Methods. The enzyme activities were calculated as pmol/μg/min. The data represents an average of triplicate experiments.
# Cells seeded in a 10-cm culture plate were serum-starved and treated with LPA as described in the figure legends. Cells were harvested and homogenized in ice-cold homogenization buffer containing 0.25 M sucrose, 10 mM Tris-HCl, pH 7.5, 10 mM MgCl2, 2 mM EGTA, and protease inhibitors. Homogenates were centrifuged at 20,000×g at 4° C. for 20 min. Pellets were washed twice with the above buffer, resuspended in 10 mM Tris-HCl, pH 7.4, and 10 MM MgCl2, and the adenylyl cyclase assays were performed as described previously (Jang et al. 2001). The membrane proteins (15 μg/ml) were incubated for 10 min at 30° C. in a reaction mixture (100 μl) containing 40 mM Tris, pH 7.4, 0.2 mM EGTA, 100 mM NaCl, 10 mM MgCl2, 0.5 mM ATP, 5 μg/ml phosphocreatine, 5 IU/ml creatine phosphokinase, 10 μM GTP, and 0.5 mM IBMX. The reaction was stopped by adding 2.5 M perchloric acid. The amount of cAMP generated was determined by cAMP binding assay.
# phospholipase D (PLD) = assay: phosphatidylbutanol formation as an indication of phospholipase D activity; type: cell-based, human; details: passage 24 near-senescent cells vs presenescent; 0.5% 1-butanol, 20 min
# Experimental: Subconfluent presenescent (passage 8: Pa 8) and near-senescent (passage 24: Pa 24) cells were serum-starved and labeled with [^3H]myristic acid overnight. […] A representative experiment of three performed in duplicate is presented.
# Quiescent cells were labeled overnight with [^3H]myristic acid (1 μCi/ml) and then washed with PBS. Phosphatidylbutanol formation was measured as described by Yeo et al. (1994). Cells were preincubated with 0.5% (v/v) 1-butanol for 15 min and then treated with agonists for 20 min in the presence of 0.5% 1-butanol. Total lipids were extracted and separated by thin layer chromatography. The band of phosphatidylbutanol was scraped off the plates and its radioactivity was counted in a liquid scintillation cocktail.
# [1] = system: human diploid fibroblasts; assay: LPA-stimulated cell proliferation (viable cell count or MTT assay); type: cell-based; details: 4 days treatment
# Text: The optical density at 570 nm was plotted (A). The actual viable cell numbers were plotted (B).
# In order to study the role of LPA-induced cAMP signaling, the inventors further compared LPA-stimulated cell proliferation between presenescent and near-senescent cells. After 4 days treatment with vehicle or LPA, the level of viable cells were counted or measured by MTT assay.
# Phospholipase C (PLC) = details: near-senescent cells (passage 23) vs presenescent (passage 6); PDGF 50 ng/ml, LPA 1 μg/ml, 20 min, 20 mM LiCl
# [2] = system: human diploid fibroblasts; assay: measurement of cytosolic free [Ca2+]i by confocal microscopy (fluo-3-AM); type: cell-based; details: PDGF 50 ng/ml, LPA 1 μg/ml
# Experimental: FIG. 1 represents differential changes in growth factor-stimulated calcium release in senescent fibroblasts. Presenescent (passage 7: A and C) and senescent (passage 27: B and D) fibroblasts were grown on coverslips, serum-starved, and incubated with 4 μM fluo-3-AM in serum-free medium for 40 min. The stained cells were treated with […] of platelet-derived growth factor (A and B) or 1 μg/ml of lysophosphatidic acid (C and D) via a micro-perfusion system for the real-time measurement of signaling molecules, and laser scanning confocal microscopy. The scanned images were analyzed for changes in intracellular Ca^2+ at the single cell level and results expressed as relative fluorescence intensity (RFI).
# [Ca^2+]i was measured using a laser scanning confocal microscope, as described by Junn et al. (2000). Quiescent fibroblasts grown on glass cover slips in a 6-well plate were stained with 4 μM of fluo-3-acetoxymethyl ester (fluo-3-AM) in phenol red-free medium without serum for 40 min and washed three times with the serum-free medium. Stained cells on each cover slip were mounted on a perfusion chamber (MPS-1000, Seoul Engineering, Korea), placed under the confocal laser scanning microscope (Carl Zeiss LSM 410), and scanned every 5 sec with a 488 nm excitation argon laser and a 515 nm long pass emission filter. Growth factors were added to the cells using an automatic pumping system (self-designed). All scanned images were analyzed for [Ca ^2+]i changes at the single cell level using “Time Series Program” for a real-time measurement of relative fluorescence intensity (RFI) which is installed in the Carl Zeiss LSM 410 confocal system.
# [3] = system: human diploid fibroblasts; assay: confocal microscopic measurement of actin polymerization (NBD-phallacidin); type: cell-based; details: PDGF 50 ng/ml, LPA 1 μg/ml
# Experimental: FIG. 2 represents differential changes in growth factor-induced actin polymerization in senescent fibroblasts. […] The cells were fixed, permeabilized, and stained with NBD-phallacidin, then photographed.
# F-actin was stained as described by Shin et al. (1999). Quiescent cells grown on glass cover slips in multi-well culture plates were treated with agonists for 30 min, and the cells were fixed with 3.7% paraformaldehyde in PBS for 30 min on ice. Following permeabilization with 0.2% Triton X-100 in PBS for 15 min on ice, the cells were stained with […] NBD-phallacidin in PBS for 30 min at RT. The stained cells were washed three times with PBS for 15 min and the cover slip was mounted on a slide glass with Gelvatol, which was prepared by mixing 100 ml of 23% polyvinyl alcohol in PBS with 50 ml glycerol. The cells were then observed under a confocal fluorescence microscope.
substance,measurement,setting,value
lysophosphatidic acid [LPA],PKC activation,PKC,further increase in PKC activation
same,total AC activity,adenylyl cyclases (ACs); near-senescent cells,increased
same,total AC activity,adenylyl cyclases (ACs); presenescent cells,reduced time-dependently
same,reduction of PLD activity,phospholipase D (PLD),ca. 20%
same,rate of LPA-stimulated proliferation,[1]; near-senescent cells,partially decreased
same,cell proliferation,[1]; presenescent cells,stimulated proliferation of presenescent cells dose-dependently
same,agonist-stimulated inositol phosphates (IPs) production,Phospholipase C (PLC),enhanced
same,cytosolic Ca2+ levels,[2]; presenescent fibroblasts (passage 7),rapid increase
same,Ca2+ response in senescent cells relative to presenescent,[2]; senescent cells (passage 27),not significantly
same,actin polymerization (stress fibers),[3]; presenescent fibroblasts (passage 10),enhanced the formation of stress fibers
same,agonist-induced actin polymerization in senescent cells,[3]; senescent cells (passage 27),partially reduced

# — patent publication US20060099568A1, “Signals and molecular species involved in senescence” (priority 2002, published 2006)
